This is an account of results in patent US20080038321A1, “PROPHYLACTIC/THERAPEUTIC COMPOSITIONS FOR LIVER DISEASES” (Ajinomoto Co., Inc., priority 2004, published 2008).

Data set [1] has as its system TRB3. The experiment in a line: Suppressive effects of amino acids on TRB3 expression in cultured hepatocytes (Fao cells, quantitative PCR). In kind it is cell-based, rat. To be noted: 3 h, minus amino acid medium plus one L-amino acid 1 mM (or standard medium), mRNA, minus amino acid medium = 1.00, n = 4, mean ± SD. How it is done:
Suppressive effects of twenty-two amino acids on TRB3 expression in rat hepatic cancer-derived Fao cells were examined.
The standard medium is a medium corresponding to the minus amino acid medium, except for further containing amino acids listed in Table 2.
RNAs were extracted from the cultured cells, the expression levels of TRB3 gene were determined through quantitative polymerase chain reaction (PCR), and the suppressive effects of amino acids on TRB3 expression were determined and compared with data of TRB3 expression induced upon amino acid starvation. The gene expression was corrected with reference to β-actin expression level. The correction was carried out in the same manner in the after-mentioned genes.
The data were corrected and expressed while taking the average of TRB3 mRNA levels after three-hour cultivation in the minus amino acid medium as 1.00.

Data set [2] relates to glucose-6-phosphatase (G6Pase). The experiment in a line: Effect of L-Asp on G6Pase expression suppressive action of insulin in Fao cells (quantitative PCR). In kind it is cell-based, rat. The settings on record: 6 h, no insulin = 1.00. How it is done: To verify whether an amino acid showing a TRB3 expression suppressive action actually increases the insulin action on hepatocytes, how L-Asp acts on glucose-6-phosphatase (G6Pase) expression suppressive action of insulin in rat hepatic cancer-derived Fao cells was studied.
Fao cells were inoculated on a 24-well plate and cultured overnight. Thereafter, 0, 0.3, and 1.0 mM L-Asp and 0, 10^−10, 10^−8, and 10^−6 M insulin were added respectively to a basal medium corresponding to RPMI 1640 medium containing no glucose but 0.1% BSA, except with L-Asp being removed therefrom, and the cells were further cultivated for six hours. RNAs were extracted from the cultured cells, and the expression levels of G6Pase were determined through quantitative PCR.
The G6Pase expression level in −Asp RPMI medium added with no insulin is defined as 1.00.
The values in the parentheses are values while defining the G6Pase expression levels in −Asp RPMI medium at respective insulin concentrations as 1.00, respectively.

Data set [3] relates to GK rats fed with high-fat diets. The experiment in a line: GK rats fed with high-fat diets: body weight, fasting glucose, insulin, triglyceride, liver triglyceride. The settings on record: HFD with about 6% L-Asp or 0.01% pioglitazone.
The test system of a further data set is HNF-4α. The data set is described as follows: HNF-4α mRNA in Fao cells with L-Asp, L-Ala or both (quantitative PCR). To be noted: 3 h, L-Asp 0.05 mM, L-Ala 0.03 mM or both. In kind it is cell-based, rat. The method, then: (§1) Whether the suppressive effect of L-Asp on TRB3 expression in rat hepatocyte-derived Fao cells is increased by adding L-Ala as another amino acid was studied. Whether the expression of HNF-4α is increased was also studied. Fao cells were inoculated on a 24-well plate to an amount of 2×10^5 cells/well, and the cells were cultivated in a 10% fetal bovine serum-containing RPMI 1640 medium (supplied from Nacalai Tesque, Inc.; Code No. 30264-85) at 37° C. in an atmosphere of 5% CO2 overnight. On the following day, the medium was replaced with one of a 10% fetal bovine serum-containing RPMI medium from which all amino acids had been removed (minus amino acid medium; Table 1) and media corresponding to the minus amino acid medium, except with L-Asp (concentration: 0.05 mM), L-Ala (concentration: 0.03 mM), or both added, and the cells were further cultivated at 37° C. in 2.5% CO2 atmosphere for three hours. RNAs were extracted from the cultured cells, and the TRB3 mRNA levels and the HNF-4α mRNA levels were determined through quantitative polymerase chain reaction (PCR) (Table 10).

Data set [4] relates to TRB3. The data set is described as follows: TRB3 mRNA in Fao cells with L-Asp, L-Ala or both (quantitative PCR). In kind it is cell-based, rat. The settings on record: 3 h, L-Asp 0.05 mM, L-Ala 0.03 mM or both. The method, then:
as §1

Data set [5] concerns TRB3. The data set is described as follows: Suppressive effects of amino acids on TRB3 expression in cultured hepatocytes (Fao cells, quantitative PCR). In kind it is cell-based, rat. To be noted: other experiments; 1 mM.
[6] abbreviates: before administration (baseline).

With `N=C(N)NCCC[C@H](N)C(=O)O` [arginine], the TRB3 expression level entry in the data set with TRB3 [1] is reported as “do not show significantly suppressed TRB3 expression”.

As for `N[C@@H](CS)C(=O)O` [cysteine], the TRB3 expression level entry in the data set with TRB3 [1] is on record as “do not show significantly suppressed TRB3 expression”.

On to `NCCCC[C@H](N)C(=O)O` [lysine], for which the TRB3 expression level result in the data set with TRB3 [1] is reported as “do not show significantly suppressed TRB3 expression”.

For `CC[C@H](C)[C@H](N)C(=O)O` [isoleucine], the TRB3 expression level result with TRB3 [1] is “do not show significantly suppressed TRB3 expression”.

As for `O=C(O)[C@@H]1CCCN1` [proline], the TRB3 expression level result in the data set on TRB3 [1] is listed as “do not show significantly suppressed TRB3 expression”.

In the case of `N[C@@H](CO)C(=O)O` [serine], the TRB3 expression level entry in the data set on TRB3 [1] is recorded as “do not show significantly suppressed TRB3 expression”.

Turning to `NC(=O)CC[C@H](N)C(=O)O` [L-Gln, glutamine], the TRB3 expression level with TRB3 [1] is 0.750 ± 0.15; with TRB3 [1] (listed as glutamine), “significantly suppressed TRB3 expression”.

On to “insulin: insulin added to the Fao cell culture medium at 10^-10 to 10^-6 M [reference compound]”, for which the G6Pase expression level in data set [2] (insulin 10^-6 M alone in -Asp RPMI) was 0.023 (1.00); in data set [2] (insulin 10^-8 M alone in -Asp RPMI), 0.032 (1.00); in data set [2] (insulin 10^-10 M alone in -Asp RPMI) it was 0.148 (1.00).

`CSCC[C@H](N)C(=O)O` [methionine]: the TRB3 expression level result in the data set with TRB3 [1] is “do not show significantly suppressed TRB3 expression”.

Turning to `N[C@@H](Cc1c[nH]cn1)C(=O)O` [L-His, histidine], the TRB3 expression level in the data set with TRB3 [1] is recorded as 0.643 ± 0.19; in the data set with TRB3 [1] (listed as histidine), “significantly suppressed TRB3 expression”.

For `CC(C)C[C@H](N)C(=O)O` [leucine], in the data set on TRB3 [1], the TRB3 expression level entry is on record as “do not show significantly suppressed TRB3 expression”.

For `N[C@@H](CSSC[C@H](N)C(=O)O)C(=O)O` [L-Cyt, cystine], the TRB3 expression level in the data set on TRB3 [1] is 0.487 ± 0.13; in the data set on TRB3 [1] (listed as cystine), “significantly suppressed TRB3 expression”.

As to `CC(C)[C@H](N)C(=O)O` [valine], the TRB3 expression level entry in the data set with TRB3 [1] is reported as “do not show significantly suppressed TRB3 expression”.

As for `CCc1ccc(CCOc2ccc(CC3SC(=O)NC3=O)cc2)nc1` (stereo not shown) [Pio, pioglitazone, reference compound], in data set [3] (setting [6]), the “Fasting blood glucose level” value stood at 121 ± 37 mg/dL, the Fasting insulin level amounted to 0.4 ± 0.3 ng/mL and the Fasting triglyceride level was determined as 92 ± 19 mg/dL. Further, the Body weight in data set [3] (before administration (baseline), n = 6) is recorded as 222 ± 10 g. Also, in data set [3] (week 3), the “Fasting blood glucose level” value was 127 ± 5 mg/dL, the Fasting insulin level came out at 1.9 ± 0.2 ng/mL and the Fasting triglyceride level was 97 ± 16 mg/dL. In data set [3] (week 6), the “Fasting blood glucose level” value worked out at 109 ± 8 mg/dL, the Fasting insulin level worked out at 1.3 ± 0.5 ng/mL, the Fasting triglyceride level worked out at 75 ± 12 mg/dL and the “Triglyceride content in liver” value came out at 36 ± 8 mg/g.

As for `C[C@@H](O)[C@H](N)C(=O)O` [threonine], the TRB3 expression level entry in the data set with TRB3 [1] is recorded as “do not show significantly suppressed TRB3 expression”.

Regarding `C[C@H](N)C(=O)O` [Ala, L-alanine], the “expression level of HNF-4α mRNA” value with HNF-4α is “not increased”. Besides, the “HNF4α mRNA level” value with HNF-4α (minus amino acid medium = 1.00) was 0.80. Moreover, in the data set with TRB3 [4] (minus amino acid medium = 1.00), the “TRB3 mRNA level” value came to 0.43. In addition, the “expression level of TRB3 mRNA” value in the data set on TRB3 [4] (of minus amino acid medium) was 43%.

Regarding `N[C@@H](Cc1c[nH]c2ccccc12)C(=O)O` [tryptophan], the TRB3 expression level result with TRB3 [1] is “do not show significantly suppressed TRB3 expression”.

For the molecule `NCC(=O)O` [L-Gly, glycine], the TRB3 expression level in the data set with TRB3 [1] was 0.665 ± 0.12; with TRB3 [1] (listed as glycine), “significantly suppressed TRB3 expression”.

Turning to `N[C@@H](Cc1ccccc1)C(=O)O` [phenylalanine], the TRB3 expression level entry in the data set with TRB3 [1] is on record as “do not show significantly suppressed TRB3 expression”.

On to `N[C@@H](CCC(=O)O)C(=O)O` [glutamic acid], for which the TRB3 expression level result with TRB3 [1] was “do not show significantly suppressed TRB3 expression”.

For `NC(=O)C[C@H](N)C(=O)O` [asparagine], the TRB3 expression level entry in the data set with TRB3 [1] was “do not show significantly suppressed TRB3 expression”.

For the molecule `O=C(O)[C@@H]1C[C@@H](O)CN1` [hydroxyproline], the TRB3 expression level result with TRB3 [1] was “do not show significantly suppressed TRB3 expression”.

Turning to `N[C@@H](Cc1ccc(O)cc1)C(=O)O` [tyrosine], the TRB3 expression level entry in the data set with TRB3 [1] is recorded as “do not show significantly suppressed TRB3 expression”.

For `C[N+](C)(C)CC(=O)O` [betaine, reference compound], the “suppressive effect on TRB3 expression” value in the data set with TRB3 [5] is “does not show a suppressive effect”.
